Data set [1] in a line: Average particle diameter of the lipid nanoparticles in each preparation (Zetasizer Nano ZS). Format: physicochemical. The text has this: Each sample was weighed so that the ratio of each of Compounds I-1 to I-5/1,2-dimyristoyl-sn-glycero-3-phosphoethanolamine-N-(methoxy(polyethylene glycol)-2000) sodium salt (PEG-DMPE Na, N-(carbonylmethoxypolyethylene glycol 2000)-1,2-dimyristoyl-sn-glycero-3-phosphoethanolamine sodium salt, manufactured by NOF Corporation)/disteazoylphosphatidyl choline (DSPC, 1,2-distearoyl-sn-glycero-3-phosphocholine, manufactured by NOF Corporation)/choiestercl (manufactured by NOF Corporation)=8.947/1.078/5.707/13.698 mmol/L, and dissolved in 90 vol % ethanol, whereby a solution containing the constituent components of a lipid membrane was prepared. Separately, apo-b siRNA in distilled water (24 mg/mL) was diluted with a Tris-EDTA buffer solution (200 mM Tris-HCl, 20 mM EDTA, manufactured by Invitrogen Co., Ltd.) and a 20 mM citric acid buffer solution (pH 5.0), whereby a 1.5 mg/mL apo-b siRNA aqueous solution (2 mM Tris-EDTA buffer solution, 20 mM citric acid buffer solution, pH 5.0) was prepared.
The obtained lipid solution was heated to 37° C., and a 500 μL portion was transferred to a container for preparing a preparation. The obtained apo-b siRNA aqueous solution (500 μL) was then added thereto while stirring. Then, a 20 mM citric acid buffer solution (containing 300 mM NaCl, pH 6.0, 1000 μL) was added to the obtained lipid nucleic acid mixed suspension (1000 μL) while stirring, and further, DPBS (manufactured by Invitrogen Co., Ltd., 3310 μL) was added dropwise thereto, whereby a crude preparation was obtained. The obtained crude preparation was concentrated by using Amicon Ultra (manufactured by Millipore Co., Ltd.), and further, the solvent was replaced with DPBS, and the resulting mixture was filtered through a 0.2-μm filter (manufactured by Toyo Roshi Kaisha, Ltd.) in a laminar flow cabinet. Further, the siRNA concentration in the obtained preparation was measured, and the preparation was diluted with DPBS so that the siRNA concentration was 0.3 mg/mL, whereby preparations (compositions containing any of Compounds I-1 to I-5, and the nucleic acid) were obtained.
The average particle diameter of the lipid nanoparticles in each preparation was measured using a particle diameter measurement device (Zetasizer Nano ZS, manufactured by Malvern).
Preparations were obtained in the same manner as in Example 9 except that Compounds I-1 to I-5 were changed to DLin-KC2-DMA synthesized by a modified method of the method described in WO2010/042877 and the compounds obtained in Reference Examples 5 to 7 (Compounds VII-1 to VII-3).
The average particle diameter of the lipid nanoparticles in each preparation was measured using a particle diameter measurement device.
Each sample was weighed so that the ratio of Compound I-6/PEG-DMPE Na (manufactured by NOF Corporation)/DSPC (manufactured by NOF Corporation)/cholesterol (manufactured by NOF Corporation)=3.532/0.270/1.156/2.401 mmol/L, and dissolved in 100 volt ethanol, whereby a solution containing the constituent components of a lipid membrane was prepared.
The obtained lipid solution was heated to 37° C., and an 800 μL portion was transferred to a container for preparing a preparation. The obtained f7 siRNA aqueous solution (800 μL) was then added thereto while stirring. Then, a 20 mM citric acid buffer solution (containing 300 mM NaCl, pH 6.0, 1600 μL) was added to the obtained lipid nucleic acid mixed suspension (1600 μL) while stirring, and further, DPBS (manufactured by Invitrogen Co., Ltd., […]) was added dropwise thereto, whereby a crude preparation was obtained. The obtained crude preparation was concentrated by using Amicon Ultra (manufactured by Millipore Co., Ltd.), and further, the solvent was replaced with DPBS, and the resulting mixture was filtered through a 0.45-μm filter (manufactured by Toyo Roshi Kaisha, Ltd.) in a laminar flow cabinet. […]

Another data set deals with Factor VII. Description: In vivo drug efficacy: Factor VII protein level in plasma of mice after intravenous f7 siRNA preparations. The conditions noted are these: Balb/c mice, 0.3 or 0.1 mg/kg in terms of siRNA, 48 hours after administration, f7 siRNA preparation, FIG. 4. On the procedure:
Each of the preparations obtained in Examples 10 and 11 (the compositions containing Compound I-6, I-1, I-7, or I-8, and the nucleic acid) was tested for evaluating the in vivo drug efficacy according to the following method. Incidentally, each preparation was used after it was diluted in accordance with the test.
After mice (Balb/c, obtained from CLEA Japan, Inc.) were housed and acclimated, each preparation was intravenously administered to mice at a dose of 0.3 or 0.1 mg/kg in terms of siRNA concentration. At 48 hours after the administration, blood was collected, and the collected blood was centrifuged at 8000 rpm for 8 minutes at 4° C. using a high speed refrigerated microcentrifuge (TOMY MX305, manufactured by Tomy Seiko Co., Ltd.). The Factor VII protein level in the thus obtained plasma sample was determined as follows. A BIOPHEN VII Kit (Cat. No. A221304, manufactured by ANIARA Company) was used, and according to the method described in the protocol attached to the kit, the absorbance was measured in a standard solution and in the plasma sample using ARVO (405 nm). On the basis of the obtained absorbance, a calibration curve was prepared, and the Factor VII protein level in the plasma was calculated. Incidentally, the number of mice in each group was set to 3.

Data set [2] deals with apo-b gene mRNA in human liver cancer-derived cell line HepG2. Description: Expression ratio of apo-b mRNA after introduction of preparations into HepG2 cells. Conditions: preparation with apo-b siRNA, nucleic acid 1 to 30 nM, 24 hours, FIG. 1. Format: cell-based. The text has this:
Each of the preparations obtained in Example 9 (the compositions containing any of Compounds I-1, and I-3 to I-5, and the nucleic acid) and the preparations obtained in Comparative Example 1 (the compositions containing any of DLin-KC2-DMA and Compounds VII-1 to VII-3, and the nucleic acid) was introduced into cells of a human liver cancer-derived cell line HepG2 (HB-8065) by the following method.
Each preparation diluted with Opti-MEM (GIBCO Co., Ltd., 31985) so that the final concentration of the nucleic acid was 1 to 30 nM was dispensed in a 96-well culture plate at 20 μL/well. […]
By using the obtained cDNA as a template and also using a universal probe library (Roche Applied Science, Inc., 04683633001) as the probe and ABI7900HT Fast (manufactured by ABI, Inc.), a PCR reaction was performed according to the method described in the protocol attached thereto, so that the apo-b gene and D-glyceraldehyde-3-phosphate dehydrogenase (hereinafter, represented by “gapdh”) gene, which is a constitutively expressed gene, were subjected to the PCR reaction. Then, the amount of the amplified mRNA was measured for each gene, and aquasi-quantitative value of the apo-b mRNA was calculated using the amount of the amplified gapdh mRNA as the internal control. […]

Setting [3] is: preparations of Example 9: cationic lipid/PEG-DMPE Na/DSPC/cholesterol with apo-b siRNA.
Where [4] appears, read: preparations of Examples 10 and 11: cationic lipid/PEG-DMPE Na/DSPC/cholesterol with f7 siRNA.
The mark [5] stands for this setting: preparations of Comparative Example 1, made as in Example 9, with apo-b siRNA.

These results are taken from patent US20140294978A1, “CATIONIC LIPID” (Kyowa Hakko Kirin Co., Ltd., priority 2013, published 2014).

Each structure is given as a SMILES string.

Consider `CCCCC/C=C\C/C=C\CCCCCCCCN(CCCCCCCC/C=C\C/C=C\CCCCC)C(=O)OCCCN(C)C` [Compound I-1, 3-(Dimethylamino)propyl di((9Z,12Z)-octadeca-9,12-dienyl)carbamate], for which the “Particle diameter of Preparation obtained” value (“Particle diameter” below) is 151.8 nm in data set [1] (setting [3]) and 118.9 nm in data set [1] (setting [4]). Further, the “Factor VII protein level in the plasma (expression of the Factor VII gene)” value (shortened to “Factor VII protein level in the plasma”) in the data set on Factor VII was “strongly suppressed”.
Take `CCCCCCCC/C=C\CCCCCCCCN(CCCCCCCC/C=C\CCCCCCCC)C(=O)OCCCN(C)C` [Compound I-2, 3-(Dimethylamino)propyl di((Z)-octadec-9-enyl)carbamate]: in data set [1] (setting [3]), the “Particle diameter” value amounted to 135.8 nm.
As to `CCCCCC/C=C\CCCCCCCCN(CCCCCCCC/C=C\CCCCCC)C(=O)OCCCN(C)C` [Compound I-3, 3-(Dimethylamino)propyl di((Z)-hexadec-9-enyl)carbamate], the “Particle diameter” value in data set [1] (setting [3]) is 150.0 nm.
Still for that read-out and setting: to `CCCCC/C=C\C/C=C\CCCCCCCCCCN(CCCCCCCCCC/C=C\C/C=C\CCCCC)C(=O)OCCCN(C)C` [Compound I-4, 3-(Dimethylamino)propyl di((11Z,14Z)-icosa-11,14-dienyl)carbamate] belongs 159.0 nm; to `CCCCC/C=C\C/C=C\CCCCCCCCN(CCCCCCCC/C=C\C/C=C\CCCCC)C(=O)OCCN(C)C` [Compound I-5, 2-(Dimethylamino)ethyl di((9Z,12Z)-octadeca-9,2-dienyl)carbamate], 137.0 nm.
On to `CCCCC/C=C\C/C=C\CCCCCCCCN(CCCCCCCC/C=C\C/C=C\CCCCC)C(=O)OCCC1CCCN1C` (stereo not drawn) [Compound I-6, 2-(1-Methylpyrrolidin-2-yl)ethyl di((9Z,12Z)-octadeca-9,12-dienyl)carbamate], for which the “Particle diameter” value in data set [1] (setting [4]) is on record as 121.1 nm. The “Factor VII protein level in the plasma” value with Factor VII is given as “strongly suppressed”.
As for `CCCCC/C=C\C/C=C\CCCCCCCCN(CCCCCCCC/C=C\C/C=C\CCCCC)C(=O)OCCCN1CCCCC1` [Compound I-7, 3-(Piperidin-1-yl)propyl di((9Z,12Z)-octadeca-9,12-dienyl)carbamate], the “Particle diameter” value in data set [1] (setting [4]) is 131.8 nm. In addition, in the data set with Factor VII, the “Factor VII protein level in the plasma” value was “strongly suppressed”.
For `CCCCC/C=C\C/C=C\CCCCCCCCN(CCCCCCCC/C=C\C/C=C\CCCCC)C(=O)OCCCN1CCCC1` [Compound I-8, 3-(Pyrrolidin-1-yl)propyl di((9Z,12Z)-octadeca-9,2-dienyl)carbamate], in that order: 121.6 nm and “strongly suppressed”.
On to `CCCCC/C=C\C/C=C\CCCCCCCCN(CCCCCCCC/C=C\C/C=C\CCCCC)C(=O)CCCCN` [Compound VII-1, 5-Amino-N,N-di((9Z,12Z)-octadeca-9,12-dienyl)pentanamide, reference compound], for which the “Particle diameter” value in data set [1] (setting [5]) is on record as 176.6 nm.
`CCCCC/C=C\C/C=C\CCCCCCCCN(CCCCCCCC/C=C\C/C=C\CCCCC)C(=O)CCCCN(C)C` [Compound VII-2, 5-(Dimethylamino)-N,N-di((9Z,12Z)-octadeca-9,12-dienyl)pentanamide, reference compound]: in data set [1] (setting [5]), the “Particle diameter” value is 160.1 nm. Also, in data set [2], the “expression of the apo-b gene mRNA” value was “did not suppress the expression of the apo-b gene mRNA”.
Consider `CCCCC/C=C\C/C=C\CCCCCCCCN(CCCCCCCC/C=C\C/C=C\CCCCC)C(=O)OCCCN` [Compound VII-3, 3-Aminopropyl di((9Z,12Z)-octadeca-9,12-dienyl)carbamate, reference compound], for which the “Particle diameter” value in data set [1] (setting [5]) was 177.7 nm.
As for `CCCCC/C=C\C/C=C\CCCCCCCCC1(CCCCCCCC/C=C\C/C=C\CCCCC)OCC(CCN(C)C)O1` (stereo not drawn) [DLin-KC2-DMA, 2,2-dilinoleyl-4-(2-dimethylaminoethyl)-[1,3]-dioxolane, reference compound], the “Particle diameter” value in data set [1] (setting [5]) was 159.8 nm.
